Reference: patent US8486962B2, “Antifungal agents” (F2G Ltd., priority 2005, dated 2013)
Converted amounts (≈) assume the structure as drawn. Read-outs that look alike come from different tables or passages of the source.

Legend:
Type in all cases: cell-based
[1] = tested on: Aspergillus fumigatus AF293; experiment: MIC, YAG medium, Aspergillus fumigatus AF293; details: Aspergillus fumigatus, AF293; YAG medium; read-out: MIC A Fum. 293
Experimental: (§1) Measurement of Minimum Inhibitory Concentrations (MICs)
(§2) Between 1 and 5 mgs of compound were accurately weighed out into a sterile Eppendorf tube. The compound was dissolved in DMSO to give a solution containing 5 mg/ml. Tubes were stored at −20° C. until required.
(§3) On the day of testing thawed solutions were vortex mixed to ensure homogeneity. 30 μl of solution was removed and added to 570 μl of sterile water in a separate sterile Eppendorf. The thoroughly mixed solution was used to prepare a series of doubling dilutions in water, in a deep well plate. Eleven replicate plates were prepared using a Minitrak by aspirating 20 μl from each well into eleven clear polystyrene 96 well plates.
(§4) Spores of Aspergillus spp (Aspergillus fumigatus, Aspergillus terreus, Aspergillus niger and Aspergillus flavus) were harvested from cultures grown on Sabarauds agar for 5 days, and resuspended in PBS/Tween 80 to approx 1×10^7 cfu/ml Other filamentous fungi (Fusarium solani, Scedosporium spp., Trichophyton spp., Absidia corymbifera), were grown on Sabarauds agar for 2-10 days and spores/hyphae resuspended in PBS/Tween to give approx 1×10^7 cfU/ml. Candida species (Candida albicans, Candida glabrata, Candida krusei, Candida parapsilosis and Candida tropicalis) were grown on Sabarauds agar, cells were harvested from the agar using a sterile loop and resuspended in PBS/Tween 80 to approx 1×10^6 cfu/ml. Each organism suspension was diluted in RPMI medium, containing 2% glucose and 0.135M MOPS buffer (pH7.0) to 2×10^4 cfu/ml for Aspergillus spp and other filamentous fungi and 2×10^3 cfu/ml for yeast. 80 μl of an organism suspension was added to each well of the plate containing drug dilutions.
(§5) This produced MIC plates with a drug range 50-0.05 mg/L and organism inocula of 1-2×10^4 cfu/ml for Aspergillus spp and other filamentous fungi and 1-2×10^3 cfu/ml for yeasts. All plates were incubated for 24-48 hrs at 35° C. Growth was assessed by monitoring the optical density at 485 nm for each well. The MIC of a compound is the lowest drug concentration that inhibits growth of an organism by >80% compared with a drug free control. MICs are recorded as mg/L. Other growth media can be used for susceptibility testing, and the activity of the described compounds can also be assessed in a medium comprising, 1% glucose, 1% ammonium chloride and 0.5% yeast extract (YAG medium). To perform MIC tests in this medium, dilutions of compounds are prepared in microtitre plates as described above. Fungal strains to be tested are grown and harvested in an identical manner to that described above, each organism suspension is then diluted in YAG medium to 2×10^4 cfu/ml for Aspergillus spp and other filamentous fungi and 2×10^3 cfu/ml for yeast. 80 μl of an organism suspension was added to each well of the plate containing drug dilutions. This produced MIC plates with a drug range 50-0.05 mg/L and organism inocula of 1-2×10^4 cfu/ml for Aspergillus spp and other filamentous fungi and 1-2×10^3 cfu/ml for yeasts. All plates were incubated for 24 hrs at 35° C. Growth was assessed by monitoring the optical density at 485 nm for each well. The MIC of a compound is the lowest drug concentration that inhibits growth of an organism by >70% compared with a drug free control. MICs are recorded as mg/L. In cases where the MIC of an organism is […]0.05 mg/L the MIC is repeated using a concentration range of 0.5-0.0005 mg/L. MIC tests in YAG medium have more clear-cut endpoints and have slightly lower MICS than those performed in RPMI medium.
(§6) The following organisms were tested: Aspergillus fumigatus AF293 and Aspergillus fumigatus AF210, Aspergillus niger, Aspergillus terreus, Aspergillus favus, Candida albicans, Candida krusei, Candida tropicalis, Candida glabrata, Candida parapsilosis, Trichophyton rubrum, Trichophyton mentagrophytes, Scedosporium prolificans, Scedosporium apiospermum, Absidia corymbifera, Fusarium solani.

Aspergillus flavus = experiment: MIC, YAG medium, Aspergillus flavus; details: Aspergillus flavus, YAG medium
Experimental: as §1, §2, §3, §4, §5, §6

Aspergillus terreus = experiment: MIC, YAG medium, Aspergillus terreus; details: Aspergillus terreus, YAG medium
Experimental: as §1, §2, §3, §4, §5, §6

[2] = tested on: Aspergillus fumigatus AF210; experiment: MIC, YAG medium, Aspergillus fumigatus AF210; details: Aspergillus fumigatus, AF210; YAG medium; read-out: MIC A Fum. 210
Experimental: as §1, §2, §3, §4, §5, §6

Aspergillus niger = experiment: MIC, YAG medium, Aspergillus niger; details: Aspergillus niger, YAG medium
Experimental: as §1, §2, §3, §4, §5, §6

Structure (SMILES)	MIC [1] [µg/mL]	MIC (Aspergillus flavus; read-out: MIC A Flavus 01) [µg/mL]	MIC (Aspergillus terreus; read-out: MIC A Terreus 4) [µg/mL]	MIC [2] [µg/mL]	MIC (Aspergillus niger; read-out: MIC A Niger 1) [µg/mL]	MIC (Aspergillus flavus; read-out: MIC A Flavus) [µg/mL]	MIC (Aspergillus terreus; read-out: MIC A Terreus) [µg/mL]	MIC (Aspergillus niger; read-out: MIC A Niger) [µg/mL]
COc1ccc(NC(=O)C(=O)c2c(-c3ccncc3)cc3ccccn23)cc1 [Example 162, N-(4-Methoxy-phenyl)-2-oxo-2-(2-pyridin-4-yl-indolizin-3-yl)-acetamide]	> 50	> 50	> 50	> 50	3.1 (≈ 8.35 µM)			
COc1ccc(NC(=O)C(=O)c2c(-c3ccccc3)cc3ccc(OC)cn23)cc1 [Example 239, N-(4-Methoxy-phenyl)-2-(6-methoxy-2-phenyl-indolizin-3-yl)-2-oxo-acetamide]	50 (≈ 125 µM)	0.05 (≈ 0.125 µM)	0.05 (≈ 0.125 µM)	> 50	0.8 (≈ 2 µM)			
COc1ccc(NC(=O)C(=O)c2c(-c3ccccc3)cc3cccc(C)n23)cc1 [Example 237, N-(4-Methoxy-phenyl)-2-(5-methyl-2-phenyl-indolizin-3-yl)-2-oxo-acetamide]	1.6 (≈ 4.16 µM)	1.6 (≈ 4.16 µM)	0.4 (≈ 1.04 µM)	3.1 (≈ 8.06 µM)	0.8 (≈ 2.08 µM)			
COc1ccc(NC(=O)C(=O)c2c(-c3ccccn3)cc3ccccn23)c(OC)c1 [Example 176, N-(2,4-Dimethoxy-phenyl)-2-oxo-2-(2-pyridin-2-yl-indolizin-3-yl)-acetamide]	> 50	> 50	> 50	> 50	3.1 (≈ 7.72 µM)			
COCCNC(=O)C(=O)c1c(-c2ccccc2)cc2ccccn12 [Example 181, N-(2-Methoxy-ethyl)-2-oxo-2-(2-phenyl-indolizin-3-yl)-acetamide]	50 (≈ 155 µM)	25 (≈ 77.6 µM)	25 (≈ 77.6 µM)	25 (≈ 77.6 µM)	25 (≈ 77.6 µM)			
Cc1ccc(NC(=O)C(=O)c2c(-c3ccncc3)cc3ccccn23)cc1 [Example 171, 2-Oxo-2-(2-pyridin-4-yl-indolizin-3-yl)-N-p-tolyl-acetamide]	50 (≈ 141 µM)	0.4 (≈ 1.13 µM)	0.8 (≈ 2.25 µM)	1.6 (≈ 4.5 µM)	> 50			
Cc1ccccc1NC(=O)C(=O)c1c(-c2cccnc2)cc2ccccn12 [Example 213, 2-Oxo-2-(2-pyridin-3-yl-indolizin-3-yl)-N-o-tolyl-acetamide]	6.25 (≈ 17.6 µM)	0.4 (≈ 1.13 µM)	0.8 (≈ 2.25 µM)	6.25 (≈ 17.6 µM)	1.6 (≈ 4.5 µM)			
O=C(Nc1ccccn1)C(=O)c1c(-c2ccccc2)cc2ccccn12 [Example 151, 2-Oxo-2-(2-phenyl-indolizin-3-yl)-N-pyridin-2-yl-acetamide]	6.25 (≈ 18.3 µM)	1.6 (≈ 4.69 µM)	0.4 (≈ 1.17 µM)	6.25 (≈ 18.3 µM)	0.4 (≈ 1.17 µM)			
O=C(C(=O)N1CCCCCC1)c1c(-c2ccccc2)cc2ccccn12 [Example 301, 1-Azepan-1-yl-2-(2-phenyl-indolizin-3-yl)-ethane-1,2-dione]	50 (≈ 144 µM)			25 (≈ 72.2 µM)		50 (≈ 144 µM)	12.5 (≈ 36.1 µM)	25 (≈ 72.2 µM)
O=C(Nc1ccccc1Cl)C(=O)c1c(-c2cccnc2)cc2ccccn12 [Example 216, N-(2-Chloro-phenyl)-2-oxo-2-(2-pyridin-3-yl-indolizin-3-yl)-acetamide]	6.25 (≈ 16.6 µM)	0.2 (≈ 0.532 µM)	0.2 (≈ 0.532 µM)	6.25 (≈ 16.6 µM)	0.4 (≈ 1.06 µM)			
CNC(=O)c1ccc(NC(=O)C(=O)c2c(-c3ccccc3)cc3ccccn23)cc1 [Example 153, N-Methyl-4-[2-oxo-2-(2-phenyl-indolizin-3-yl)-acetylamino]-benzamide]	> 50	3.1 (≈ 7.8 µM)	> 50	25 (≈ 62.9 µM)	0.8 (≈ 2.01 µM)			
